The target of one series is T1, hM1R (Homo sapiens, UniProt P11229).
T1 construct: expressed in transfected cells; host or cells: CHO cell membranes
T1 sequence (P11229 1-460): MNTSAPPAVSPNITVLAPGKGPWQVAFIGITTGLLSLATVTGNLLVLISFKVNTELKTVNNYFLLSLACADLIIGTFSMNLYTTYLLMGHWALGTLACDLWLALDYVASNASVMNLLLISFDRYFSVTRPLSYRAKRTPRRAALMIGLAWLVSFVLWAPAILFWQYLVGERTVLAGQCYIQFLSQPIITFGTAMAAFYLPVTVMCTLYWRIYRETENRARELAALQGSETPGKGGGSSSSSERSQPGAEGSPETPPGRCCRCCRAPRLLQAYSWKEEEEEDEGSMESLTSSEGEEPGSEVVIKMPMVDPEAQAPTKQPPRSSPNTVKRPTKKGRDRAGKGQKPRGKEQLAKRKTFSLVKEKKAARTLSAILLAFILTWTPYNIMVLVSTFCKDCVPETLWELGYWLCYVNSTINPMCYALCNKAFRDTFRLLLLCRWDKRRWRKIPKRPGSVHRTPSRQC
The series can be described thus: Radioligand competition binding, [3H]-scopolamine (N-methyl), CHO cell membranes, hM1R. The conditions noted are these: 10 μM compound; radioligand binding; read-out: inhibition at 10 μM (M1). (In general: Loss of bound radioactivity is the signal in a displacement assay; it reports binding, not function.)

Another series deals with T2, HA–M2R (Homo sapiens, UniProt P08172).
T2 sequence (P08172 1-466): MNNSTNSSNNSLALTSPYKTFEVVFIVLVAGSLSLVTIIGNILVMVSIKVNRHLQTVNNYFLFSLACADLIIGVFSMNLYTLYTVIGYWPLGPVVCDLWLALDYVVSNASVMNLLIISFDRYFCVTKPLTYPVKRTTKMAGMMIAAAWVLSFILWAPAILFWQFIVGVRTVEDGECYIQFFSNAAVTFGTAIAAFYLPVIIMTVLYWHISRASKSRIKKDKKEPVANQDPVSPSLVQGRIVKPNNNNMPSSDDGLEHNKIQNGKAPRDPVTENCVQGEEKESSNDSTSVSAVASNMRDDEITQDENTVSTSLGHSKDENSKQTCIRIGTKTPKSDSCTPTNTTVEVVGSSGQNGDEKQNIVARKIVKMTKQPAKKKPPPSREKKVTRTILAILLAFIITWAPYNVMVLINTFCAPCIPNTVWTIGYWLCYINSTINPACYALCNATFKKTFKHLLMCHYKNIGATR
Nature of the series: Two-photon microscopy labeling of live HEK 293T cells. The format is cell-based. The conditions noted are these: 300 nM. From the text: We examined live M2R cells with two-photon microscopy as well (Figure ). A labeling pattern similar to that observed in the confocal microscopy studies was identified. Figure A illustrates 33 labeling in HA–M2R-transfected cells. […] Similarly to the confocal images, no dye labeling was detected inside the cells. Figure B presents a microscopic image of nontransfected cells, showing a minor degree of autofluorescence. […] For additional two-photon images, see Figures S7 and S8. […]
were examined using a two-photon laser scanning system (Femto2D-uncage, Femtonics Ltd., Budapest, Hungary). The imaging laser (Chameleon Ultra II, Coherent Ltd., Santa Clara, CA, USA) was set to 820 nm and to 2-3% intensity. The excitation was delivered to the slices and the fluorescent signal was collected using an XLUMPlanFI 20x lens (Olympus, Tokyo, Japan).
Before image acquisition, cells were washed twice, and the medium was replaced to modified Krebs–Ringer solution. After capturing the zero-point image, we added 300 nM 33. After two minutes we captured images in 33 and infrared transmission channels. After 3 minutes, unbound 33 was removed by washing the cells with modified Krebs–Ringer solution, and the image […]
(1 picture or pasted object on this page, not shown here)

A further series concerns the target T3, hM5R (Homo sapiens, UniProt P08912).
T3 construct: expressed in transfected cells; host or cells: CHO cell membranes
T3 sequence (P08912 1-532): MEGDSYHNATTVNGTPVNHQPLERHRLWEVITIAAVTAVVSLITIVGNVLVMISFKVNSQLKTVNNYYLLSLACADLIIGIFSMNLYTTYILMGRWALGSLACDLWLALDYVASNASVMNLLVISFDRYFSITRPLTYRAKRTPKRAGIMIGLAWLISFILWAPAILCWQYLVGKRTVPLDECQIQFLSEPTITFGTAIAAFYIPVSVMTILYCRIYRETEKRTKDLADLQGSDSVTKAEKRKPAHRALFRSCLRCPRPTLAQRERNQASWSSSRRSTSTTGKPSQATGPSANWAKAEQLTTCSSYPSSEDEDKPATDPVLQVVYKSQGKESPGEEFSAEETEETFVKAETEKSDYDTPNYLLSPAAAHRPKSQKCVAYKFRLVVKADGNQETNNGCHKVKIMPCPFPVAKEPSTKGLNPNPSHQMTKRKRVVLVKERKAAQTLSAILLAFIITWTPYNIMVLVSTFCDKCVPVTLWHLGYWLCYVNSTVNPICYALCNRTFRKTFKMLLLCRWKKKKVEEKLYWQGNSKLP
Nature of the series: Radioligand competition binding, [3H]-scopolamine (N-methyl), CHO cell membranes, hM5R. The conditions noted are these: mean ± SD, n = 3; membranes from CHO cells transfected with hM5R; read-out: Receptor Ki M5.

Series [1] can be described thus: Photophysical measurements and photostability. In kind it is physicochemical. How it is done: Next, we investigated the photophysical properties of the fluorescent probe 33. In acetonitrile, the probe has an absorption maximum at 520 nm and a fluorescence maximum at 547 nm with a Stokes shift of 27 nm. […] The dye was pH sensitive, with intensity increasing at higher pH. Following a literature procedure, we examined the effect of protein (BSA) on the ligand. […]
Photophysical Measurements
Absorbance measurements were performed using a Jasco V-750 Spectrophotometer standard cell quartz cuvette with 1 cm light path length, 1 nm bandwidth, 400 nm/min recording speed) operating at 21 °C. The fluorescence measurements were carried out on a Jasco FP8300 spectrofluorometer in a standard cell quartz cuvette (1 cm light path length). Both the excitation and emission slit widths were both set to 2.5 nm, and the scanning speed was 400 nm/min. Pure solvents were used for blank correction. Absorbance spectra and excitation spectra were recorded in the range of […]. For the emission spectra, we excited the sample at the excitation maximum, and measured it from excitation maximum plus 10 nm to 800 nm.
Quantum yields were calculated by recording the fluorescence spectra of a series of different concentrations. The gradient of the integrated fluorescence intensities plotted against absorbance at the excitation wavelength was used for the calculation of the quantum yields:
The compound 33 was excited at 360 nm, OG488-NHS was used as reference (Φwater = […]
Solvent screening measurements were conducted using 5 μM solutions of the fluorescent probe 33 in various solvents, including acetonitrile, 1,4 -dioxane, water, toluene, dichloromethane, tetrahydrofuran, ethanol, PBS buffer (pH=5; 7; 7.4, 9), PBS buffer (pH=7.4) with 1% BSA, and ethyl acetate. Photostability measurements were performed with 5 μM solution of in PBS buffer (pH=7). The samples were exposed to a 4 W light-emitting diode emitting at 450 nm, and emission spectra were recorded.

As for `O=C(CCOCCOCCNC(=O)c1ccc(-c2c3cc(F)c(=O)cc-3oc3cc(O)c(F)cc23)c(C(=O)O)c1)NCCOCCOCCNc1ccccc1C(=O)N1CCC(N2CCC(Cc3ccc(S(=O)(=O)c4cccc(Cl)c4)cc3)CC2)CC1` [Compound 33], at hM1R, the inhibition (as a rule, how much of the control response was suppressed) at 10 µM is 38%. On HA–M2R (excited at 820 nm, live HEK 293T), the “labeling of HA–M2R-transfected cells” value is listed as “selectively only at the plasma membrane”. Further, on HA–M2R (nontransfected HEK 293T), the “labeling of nontransfected cells” value is on record as “no receptor labeling was observed”. The inhibitory constant (Ki) (as a rule, the equilibrium dissociation constant of an inhibitor or competing ligand from its target) at hM5R came out at 182 ± 23 nM. Besides, the “photostability: irradiation time to half of the original fluorescence intensity” value in series [1] (PBS (pH 7), 5 μM, 4 W, 450 nm light) was 10 min. Moreover, in series [1] (in acetonitrile), the Stokes shift is 27 nm, the absorption maximum is 520 nm, the brightness was 8501 and the fluorescence maximum is listed as 547 nm. Further, the “molar extinction coefficient (ε)” value in series [1] (in acetonitrile) was found to be 42504.9 M^–1 cm^–1. For the same molecule, the “fluorescence quantum yield (Φf)” value in series [1] (in acetonitrile, OG488-NHS as reference) worked out at 0.20.

The values are drawn from PMC11995211, “Design, Synthesis, and Evaluation of a New Fluorescent Ligand for the M2 Muscarinic Acetylcholine Receptor” (ACS Medicinal Chemistry Letters, 2025).
